Assay results: patent publication US20220054510A1, “USE OF 1-ALPHA-HYDROXYVITAMIN D5 AND RELATED COMPOUNDS AS PROPHYLACTIC OR THERAPEUTIC AGENTS FOR SARS-COV-2 (COVID-19 VIRUS) AND RELATED INFECTIONS” (priority 2020, published 2022)

Columns and labels:
SARS-CoV-2 [1] = assay type: cell-based; conditions: Ace2-A549 cells, concentration of 10 micromolar, FIG. 2
[2] = test system: Ace2-A549 cells (human lung epithelial cells); assay: host cell survival in SARS-CoV-2 infected Ace2-A549 cells; conditions: concentration of 10 micromolar
SARS-CoV-2 [3] = conditions: biorxiv.org/content/10.1101/2020.06.21.162396v1; cited from earlier work

| Structure (SMILES) | elimination of SARS-CoV-2 virus infection (SARS-CoV-2 [1]) | killing of host cells [2] | in vitro activity against this virus (SARS-CoV-2 [3]) |
| --- | --- | --- | --- |
| C=C1/C(=C\C=C2/CCC[C@]3(C)[C@@H]([C@H](C)CC[C@@H](CC)C(C)C)CC[C@@H]23)C[C@@H](O)C[C@@H]1O [1-alphahydroxyvitamin D5, 1-alpha-hydroxyvitamin D5] | greater than 99% | without killing the host cells |  |
| C=C1/C(=C\C=C2/CCC[C@]3(C)[C@@H]([C@H](C)CCCC(C)(C)O)CC[C@@H]23)C[C@@H](O)C[C@@H]1O [Calcitriol] |  |  | in vitro activity against this virus |
